According to publication PMC12057046, “Elucidation of short linear motif-based interactions of the MIT and rhodanese domains of the ubiquitin-specific protease 8” (Biology Direct, 2025):

Tested on: USP8 MIT domain
Experiment: Peptide-phage display-based deep mutational scanning (DMS), USP8 MIT domain
Format: binding, human
Conditions: bait USP8_MIT__P40818_1_142
Method in brief: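 Four rounds of phage selection against immobilized GST-tagged bait (GST control pre-clearing) at 4 °C, using human disorderome or 16-mer deep mutational scanning library (all non-Cys substitutions), ≥3 replicates. Enriched pools sequenced by Illumina NGS; replicate-summed counts converted to averaged fractions and frequency PSSMs per wild-type peptide.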

[1] = sheet S3.B_ProP-PD_pairs, ratio within the wild-type/mutant pair, larger over smaller averaged fraction (direction from fraction_wt and fraction_mut)
[2] = MLPH 482-497, ratio of averaged fractions of wild-type/mutant peptide pair, larger over smaller (direction to be read from the two fractions)
[3] = EFCAB12 (Q6NXP0) 2-17, pair of mutant with wild-type wt_00016 (MDDDYEAYHSLFLSLL), sheet S3.B_ProP-PD_pairs

## SEGSDIESRIAALRAA
[1]
  hit_pair_ratio: 7.79

## SEISDIESRIAALRAA
[1]
  hit_pair_ratio: 2.51

## SELSDIESRIAALRAA
[1]
  hit_pair_ratio: 11.85

## SEPSDIESRIAALRAA
[1]
  hit_pair_ratio: 2.03

## SEQSDIESRIAALRAA
[1]
  hit_pair_ratio: 5.24

## SESSDIESRIAALRAA
[1]
  hit_pair_ratio: 3.89

## SETSDIESRIAALRAA
[1]
  hit_pair_ratio: 1.00

## SEVADIESRIAALRAA
[2]
  hit_pair_ratio: 7.79

## SEVEDIESRIAALRAA
[2]
  hit_pair_ratio: 7.79

## SEVFDIESRIAALRAA
[2]
  hit_pair_ratio: 1.56

## SEVGDIESRIAALRAA
[2]
  hit_pair_ratio: 2.28

## SEVHDIESRIAALRAA
[2]
  hit_pair_ratio: 28.09

## SEVIDIESRIAALRAA
[2]
  hit_pair_ratio: 6.39

## SEVKDIESRIAALRAA
[2]
  hit_pair_ratio: 8.70

## SEVLDIESRIAALRAA
[2]
  hit_pair_ratio: 9.47

## SEVMDIESRIAALRAA
[2]
  hit_pair_ratio: 4.36

## SEVNDIESRIAALRAA
[2]
  hit_pair_ratio: 7.79

## SEVQDIESRIAALRAA
[2]
  hit_pair_ratio: 3.89

## SEVRDIESRIAALRAA
[2]
  hit_pair_ratio: 4.05

## SEVSDDESRIAALRAA
[2]
  hit_pair_ratio: 7.79

## SEVSDFESRIAALRAA
[2]
  hit_pair_ratio: 49.08

## SEVSDHESRIAALRAA
[2]
  hit_pair_ratio: 1.54

## SEVSDIEDRIAALRAA
[2]
  hit_pair_ratio: 4.82

## SEVSDIEERIAALRAA
[2]
  hit_pair_ratio: 7.79

## SEVSDIEGRIAALRAA
[2]
  hit_pair_ratio: 2.60

## SEVSDIEHRIAALRAA
[2]
  hit_pair_ratio: 4.62

## SEVSDIELRIAALRAA
[2]
  hit_pair_ratio: 4.11

## SEVSDIEMRIAALRAA
[2]
  hit_pair_ratio: 7.10

## SEVSDIENRIAALRAA
[2]
  hit_pair_ratio: 1.11

## SEVSDIEPRIAALRAA
[2]
  hit_pair_ratio: 7.79

## SEVSDIEQRIAALRAA
[2]
  hit_pair_ratio: 1.11

## SEVSDIERRIAALRAA
[2]
  hit_pair_ratio: 1.35

## SEVSDIESREAALRAA
[2]
  hit_pair_ratio: 3.89

## SEVSDIESRFAALRAA
[2]
  hit_pair_ratio: 9.56

## SEVSDIESRIAAARAA
[2]
  hit_pair_ratio: 3.89

## SEVSDIESRIAALHAA
[2]
  hit_pair_ratio: 1.15

## SEVSDIESRIAALIAA
[2]
  hit_pair_ratio: 3.61

## SEVSDIESRIAALLAA
[2]
  hit_pair_ratio: 9.42

## SEVSDIESRIAALRAF
[2]
  hit_pair_ratio: 7.79

## SEVSDIESRIAALRAI
[2]
  hit_pair_ratio: 17.25

## SEVSDIESRIAALRAL
[2]
  hit_pair_ratio: 1.15

## SEVSDIESRIAALRAM
[2]
  hit_pair_ratio: 108.17

## SEVSDIESRIAALRAV
[2]
  hit_pair_ratio: 1.51

## SEVSDIESRIAALRAY
[2]
  hit_pair_ratio: 1.28

## SEVSDIESRIAALREA
[2]
  hit_pair_ratio: 7.79

## SEVSDIESRIAALRMA
[2]
  hit_pair_ratio: 17.19

## SEVSDIESRIAALRNA
[2]
  hit_pair_ratio: 7.79

## SEVSDIESRIAALRWA
[2]
  hit_pair_ratio: 7.79

## SEVSDIESRIAALRYA
[2]
  hit_pair_ratio: 7.79

## SEVSDIESRIAALTAA
[2]
  hit_pair_ratio: 7.79

## SEVSDIESRIAALVAA
[2]
  hit_pair_ratio: 18.10

## SEVSDIESRIAASRAA
[2]
  hit_pair_ratio: 1.95

## SEVSDIESRIAATRAA
[2]
  hit_pair_ratio: 7.79

## SEVSDIESRIAAWRAA
[2]
  hit_pair_ratio: 2.60

## SEVSDIESRIAELRAA
[2]
  hit_pair_ratio: 1.95

## SEVSDIESRIALLRAA
[2]
  hit_pair_ratio: 1.95

## SEVSDIESRIAMLRAA
[2]
  hit_pair_ratio: 1.77

## SEVSDIESRIAVLRAA
[2]
  hit_pair_ratio: 2.60

## SEVSDIESRIDALRAA
[2]
  hit_pair_ratio: 7.79

## SEVSDIESRIEALRAA
[2]
  hit_pair_ratio: 2.26

## SEVSDIESRIKALRAA
[2]
  hit_pair_ratio: 3.89

## SEVSDIESRIMALRAA
[2]
  hit_pair_ratio: 6.39

## SEVSDIESRINALRAA
[2]
  hit_pair_ratio: 7.79

## SEVSDIESRISALRAA
[2]
  hit_pair_ratio: 1.49

## SEVSDIESRKAALRAA
[2]
  hit_pair_ratio: 7.79

## SEVSDIESRQAALRAA
[2]
  hit_pair_ratio: 2.60

## SEVSDIKSRIAALRAA
[2]
  hit_pair_ratio: 3.89

## SEVSDISSRIAALRAA
[2]
  hit_pair_ratio: 1.56

## SEVSDITSRIAALRAA
[2]
  hit_pair_ratio: 1.11

## SEVSDRESRIAALRAA
[2]
  hit_pair_ratio: 2.60

## SEVSDTESRIAALRAA
[2]
  hit_pair_ratio: 3.89

## SEVSDVESRIAALRAA
[2]
  hit_pair_ratio: 7.79

## SEVSDYESRIAALRAA
[2]
  hit_pair_ratio: 2.23

## SEVSEIESRIAALRAA
[2]
  hit_pair_ratio: 1.80

## SEVSHIESRIAALRAA
[2]
  hit_pair_ratio: 7.79

## SEVSNIESRIAALRAA
[2]
  hit_pair_ratio: 3.89

## SEVSYIESRIAALRAA
[2]
  hit_pair_ratio: 7.79

## SEVVDIESRIAALRAA
[2]
  hit_pair_ratio: 12.32

## SEVWDIESRIAALRAA
[2]
  hit_pair_ratio: 1.49

## SEVYDIESRIAALRAA
[2]
  hit_pair_ratio: 346.56

## SEWSDIESRIAALRAA
[2]
  hit_pair_ratio: 1.11

## SEYSDIESRIAALRAA
[2]
  hit_pair_ratio: 1.74

## SHVSDIESRIAALRAA
[1]
  hit_pair_ratio: 1.51

## SKVSDIESRIAALRAA
[1]
  hit_pair_ratio: 3.89

## SLVSDIESRIAALRAA
[1]
  hit_pair_ratio: 1.11

## SMVSDIESRIAALRAA
[1]
  hit_pair_ratio: 7.79

## SNVSDIESRIAALRAA
[1]
  hit_pair_ratio: 1.35

## SPVSDIESRIAALRAA
[1]
  hit_pair_ratio: 1.56

## SQVSDIESRIAALRAA
[1]
  hit_pair_ratio: 1.00

## SRVSDIESRIAALRAA
[1]
  hit_pair_ratio: 3.31

## SSVSDIESRIAALRAA
[1]
  hit_pair_ratio: 24.28

## SVVSDIESRIAALRAA
[1]
  hit_pair_ratio: 2.60

## SYVSDIESRIAALRAA
[1]
  hit_pair_ratio: 1.00

## TDDDYEAYHSLFLSLL [mut_04335]
[3]
  hit_pair_ratio: 30.76

## TEVSDIESRIAALRAA
[1]
  hit_pair_ratio: 6.74

## VDDDYEAYHSLFLSLL [mut_04336]
[3]
  hit_pair_ratio: 42.24

## VEVSDIESRIAALRAA
[1]
  hit_pair_ratio: 3.36

## WDDDYEAYHSLFLSLL [mut_04337]
[3]
  hit_pair_ratio: 1.74

## WEVSDIESRIAALRAA
[1]
  hit_pair_ratio: 13.49

## YDDDYEAYHSLFLSLL [mut_04338]
[3]
  hit_pair_ratio: 1.04

## YEVSDIESRIAALRAA
[1]
  hit_pair_ratio: 4.18
